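Cells were grown in 96-well plates and exposed to each compound for 48 hours at five concentrations; endpoints were interpolated linearly between bracketing concentrations, or set to the highest concentration if not reached. GI50 = concentration required for 50% inhibition of growth. TGI is the concentration that stops growth completely.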
Tests used:
Assay in all cases: NCI-60 cell line screen, 48 h
DMS 273 small cell lung = system: DMS 273 small cell lung
KM20L2 colon = system: KM20L2 colon
LXFL 529 NSCLC = system: LXFL 529 NSCLC
M19-MEL melanoma = system: M19-MEL melanoma
SNB-78 CNS = system: SNB-78 CNS
BT-549 breast = system: BT-549 breast
DU-145 prostate = system: DU-145 prostate
MCF7 breast = system: MCF7 breast
MDA-MB-435 = system: MDA-MB-435
PC-3 prostate = system: PC-3 prostate

SMILES	TGI (DMS 273 small cell lung)	TGI (KM20L2 colon)	TGI (LXFL 529 NSCLC)	TGI (M19-MEL melanoma)	TGI (SNB-78 CNS)	TGI (BT-549 breast)	TGI (DU-145 prostate)	TGI (MCF7 breast)	TGI (MDA-MB-435)	TGI (PC-3 prostate)	GI50 (BT-549 breast)	GI50 (DU-145 prostate)	GI50 (MCF7 breast)	GI50 (MDA-MB-435)	GI50 (PC-3 prostate)
C1CN2CCO[SiH](O1)OCC2	> 100 µM	> 100 µM	> 100 µM	> 100 µM	> 100 µM	–	–	–	–	–	–	–	–	–	–
O=[N+]([O-])/C=C/c1ccc2ccccc2c1	–	–	–	–	–	7.8 µM	> 35.9 µM	> 100 µM	4.58 µM	14 µM	–	–	–	–	–
COc1ccc(/C=C/C(=O)c2c(-c3ccccc3)nn(C)c(=O)c2N2CCCCC2)cc1	> 100 µM	33.8 µM	98.8 µM	79.3 µM	–	–	–	–	–	–	–	–	–	–	–
COC(=O)[C@]12CC[C@@H](C)[C@H](C)[C@@H]1C1=CC[C@@H]3[C@@]4(C)C(C=O)=C[C@@](C)(COS(C)(=O)=O)C4=CC[C@@]3(C)[C@]1(C)CC2	–	–	–	–	–	0.63 µM	1.06 µM	1.37 µM	0.364 µM	–	0.211 µM	0.317 µM	0.265 µM	0.177 µM	–
CCN1C(=O)N(CC)C2C1NC(=S)N2/N=C/C=C/c1ccccc1 (stereo not given)	–	–	–	–	–	13 µM	> 100 µM	> 100 µM	0.0664 µM	> 100 µM	0.225 µM	0.377 µM	0.0418 µM	0.0253 µM	0.0734 µM
O=C1Nc2ccc(-c3cccnc3)cc2/C1=C/c1cc(Br)c(O)c(Br)c1	–	–	–	–	–	> 18.9 µM	> 25 µM	> 25 µM	> 21.7 µM	> 25 µM	6.05 µM	6.28 µM	11.4 µM	4.6 µM	9.05 µM
OCc1ccc(-c2ccc(-c3ccc(CO)o3)o2)o1	–	–	–	–	–	> 100 µM	> 100 µM	> 100 µM	> 100 µM	> 100 µM	> 100 µM	> 62.4 µM	16.7 µM	> 100 µM	> 100 µM
Cc1nc2sccn2c1C(=O)NNC(N)=S	> 100 µM	> 100 µM	> 100 µM	–	–	–	–	–	–	–	–	–	–	–	–
C#COc1cccc(Nc2ncnc3cc(NC(=O)[C@@H](C)Cl)ccc23)c1	–	–	–	–	–	> 62.5 µM	> 62.5 µM	> 62.5 µM	4.66 µM	> 62.5 µM	6.89 µM	16.2 µM	18.8 µM	1.65 µM	11.7 µM
Nc1c(C(=O)Nc2ccccc2)sc2nc3c(cc12)C(=O)CCC3	–	–	–	–	–	> 100 µM	19.9 µM	> 100 µM	> 100 µM	> 100 µM	3.17 µM	0.328 µM	0.366 µM	0.139 µM	0.389 µM
C[n+]1cn(CC(=O)c2ccccc2)c(C(N)=O)c1N	> 100 µM	> 100 µM	> 100 µM	63.2 µM	> 100 µM	–	–	–	–	–	–	–	–	–	–
O=C(Nc1ccc(-n2cc(-c3ccncc3)c(-c3ccc(Cl)c(O)c3)n2)cc1)c1cc(C(F)(F)F)cc(C(F)(F)F)c1	–	–	–	–	–	91.2 µM	54.7 µM	13.8 µM	80.5 µM	28.5 µM	13.3 µM	12.3 µM	3.53 µM	4.11 µM	3.29 µM
[O-][n+]1c2cccc(O)c2[n+]([O-])c2cccc(O)c21	–	–	–	–	–	> 100 µM	> 100 µM	> 100 µM	> 100 µM	> 100 µM	–	–	–	–	–
CN(C)CCCOc1ccc(NC2=C(Cl)C(=O)C(Nc3ccc(OCCCN(C)C)cc3)=C(Cl)C2=O)cc1	–	–	–	–	–	3.08 µM	1.13 µM	0.376 µM	1.05 µM	2.76 µM	1.71 µM	0.563 µM	0.15 µM	0.501 µM	1.23 µM
CC(=O)Nc1cccc(C#Cc2cncnc2Nc2ccc(OCc3cccc(F)c3)c(Cl)c2)c1	–	–	–	–	–	> 25 µM	> 25 µM	> 25 µM	> 25 µM	> 25 µM	11.9 µM	10 µM	8.33 µM	8.14 µM	8.49 µM
OC1=CN=C(c2ccccc2)Oc2ccccc21	> 100 µM	> 100 µM	> 100 µM	> 100 µM	> 100 µM	–	–	–	–	–	–	–	–	–	–
S=C(Sc1ccc(Cl)cc1)Sc1ccc(Cl)cc1	–	–	–	–	–	3.16 µM	11.4 µM	7.59 µM	4.9 µM	3.34 µM	1.21 µM	3.6 µM	2.38 µM	1.92 µM	1.58 µM
C[C@]12CCc3nc(Nc4ccc(O)cc4)sc3C1=CC[C@@H]1[C@@H]2CC[C@]2(C)/C(=N/NC(N)=S)CC[C@@H]12	–	–	–	–	–	3.99 µM	3.15 µM	3.01 µM	2.05 µM	5.28 µM	1.47 µM	1.64 µM	1.15 µM	0.664 µM	1.58 µM
N#CN1CC[C@H](C(=O)Nc2ncc(-c3ccccc3)s2)C1	–	–	–	–	–	0.821 µM	2.04 µM	1.32 µM	1.73 µM	2.97 µM	0.156 µM	0.814 µM	0.19 µM	0.273 µM	0.706 µM
CC(C)(C)O/N=C/c1cc(NC(=S)c2ccccc2)ccc1Cl	–	–	–	–	–	35.1 µM	42.1 µM	> 100 µM	88.7 µM	46 µM	–	–	–	–	–
Oc1cn(-c2ccc(Cl)cc2)nc1-c1n[nH]c(=S)n1-c1ccc(F)cc1	–	–	–	–	–	56.9 µM	> 100 µM	> 100 µM	> 100 µM	> 100 µM	16.5 µM	22 µM	24.8 µM	4.93 µM	14.8 µM
O=c1[nH]c(=S)[nH]c(O)c1/C=C1\C=Nc2ccccc21	–	–	–	–	–	37.4 µM	35.4 µM	23.9 µM	4.94 µM	73.3 µM	9.92 µM	10.3 µM	3.95 µM	2.01 µM	4.88 µM
Cn1cc(-c2ccc3ncc(-c4ccc(CC(=O)Nc5cc(C(C)(C)C)nn5C)cc4)cc3c2)cn1	–	–	–	–	–	2.78 µM	> 20 µM	> 20 µM	> 20 µM	> 20 µM	0.589 µM	1.1 µM	1.47 µM	1.25 µM	0.961 µM
